Measured values published in patent publication US20250222146A1, “Radiopharmaceuticals Targeting Somatostatin Receptor 2 and Uses Thereof” (RayzeBio, Inc., priority 2023, published 2025).
Numbered stars: 1 amine (or outer) side, 2 acyl side, 3 side chain; on linkers, the order of the positions; unused ones are H or OH. Square brackets hold non-standard residues; d marks the D form. Peptide text beside a SMILES is read from it. * marks the point of attachment. ξ: configuration not given here. DOTA(Lu)NH(CH2)6NHCOCH2 = O=C(CN1CCN2CCN3CCN(CC1)CC(=O)[O][Lu]([O]C(=O)C2)[O]C(=O)C3)NCCCCCCNC(=O)C*; X6 = O=C(CN1CCN2CCN3CCN(CC1)CC(=O)[O][Lu]([O]C(=O)C2)[O]C(=O)C3)NCCOCCOCCOCCNC(=O)C*; X3 = O=C(O)CN1CCN(CC(=O)O)CCN(CC(=O)NCCCCCCNC(=O)C*)CCN(CC(=O)O)CC1; dTrp(βS-Me) = C[C@@H](c1c[nH]c2ccccc12)[C@@H](N)C(=O)O; X4 = C[C@@H](c1ccccc1)[C@H](N[*:1])C(=O)[*:2]; Phe(3R-Me) = C[C@H](c1ccccc1)[C@H](N)C(=O)O; X22 = O=C([C@H](Cc1ccc(O)nc1)N[*:1])[*:2]; dNMeW = CN[C@H](Cc1c[nH]c2ccccc12)C(=O)O; NMeF = CN[C@@H](Cc1ccccc1)C(=O)O; 3Pal = N[C@@H](Cc1cccnc1)C(=O)O; 4Pal = N[C@@H](Cc1ccncc1)C(=O)O; Gly(cBu) = N[C@H](C(=O)O)C1CCC1; ξThr(3R) = C[C@@H](O)C(N)C(=O)O; NMehCys = CN[C@@H](CCS)C(=O)O; NMeK = CN[C@@H](CCCCN)C(=O)O

target: SSTR2 (Homo sapiens, UniProt P30874); experiment: SSTR binding affinity by radioligand binding competition assay ([125I]-Tyr11-Somatostatin, membrane extracts); conditions: SSTR2 Ki, radioligand competition, [125I]-Tyr11-Somatostatin 0.1 nM, membrane extracts; Ki from IC50 by Cheng Prusoff
Sequence (P30874 whole entry): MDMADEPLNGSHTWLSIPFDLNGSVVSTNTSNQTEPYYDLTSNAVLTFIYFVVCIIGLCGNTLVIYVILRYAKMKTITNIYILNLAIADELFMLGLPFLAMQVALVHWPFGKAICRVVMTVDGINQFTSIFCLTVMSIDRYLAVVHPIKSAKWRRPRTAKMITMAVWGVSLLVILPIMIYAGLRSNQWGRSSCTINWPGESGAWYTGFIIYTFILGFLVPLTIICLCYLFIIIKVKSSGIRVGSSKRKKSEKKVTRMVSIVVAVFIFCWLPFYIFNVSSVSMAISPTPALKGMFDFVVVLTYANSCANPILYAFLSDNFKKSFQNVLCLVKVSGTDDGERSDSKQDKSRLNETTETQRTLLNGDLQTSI
Procedure: Macrocyclic peptides in this invention were tested for binding to SSTR protein by a radioligand binding competition assay. For radioligand binding assay, competition binding is performed in duplicate in the wells of a 96 well plate containing binding buffer (HEPES 25 mM pH 7.4, MgCl2 5 mM, CaCl2 1 mM, BSA 0.5%, Saponine 10 μg/ml)), membrane extracts (0.6 μg protein/well), radiotracer ([125I]-Tyr11-Somatostatin, Perkin Elmer NEX389) and test compound. Nonspecific binding is determined by co-incubation with 200-fold excess of cold competitor (SST28). The samples are incubated in a final volume of 0.1 ml for 60 min at room temperature and then filtered over UniFilter-96 GF/C (Revvity 6055690) filter plates. Filters are washed six times with 0.5 ml of ice-cold washing buffer (HEPES 25 mM pH 7.4, MgCl2 5 mM, CaCl2 1 mM) and 50 μl of Microscint 20 (Packard) are added in each well. The plates are incubated 15 min on an orbital shaker and then counted with a TopCount™ for 1 min/well. For IC50 to Ki determination, the Cheng Prusoff equation is used: Ki=IC50/(1+ [tracer]/Kd). [Tracer] is 0.1 nM as mentioned above.

With `C[C@H](O)[C@@H]1NC(=O)[C@H](CCCCN)NC(=O)[C@@H](Cc2c[nH]c3ccccc23)NC(=O)[C@H](Cc2ccc(O)cc2)NC(=O)[C@H](CCSCC(=O)NCCCCCCNC(=O)CN2CCN3CCN4CCN(CC2)CC(=O)[O][Lu]([O]C(=O)C3)[O]C(=O)C4)N(C)C(=O)[C@H](Cc2ccccc2)NC1=O` [RB-0003464] the Ki was < 1 nM.

same assay, conditions: radioligand competition, [125I]-Tyr11-Somatostatin 0.1 nM, membrane extracts; Ki from IC50 by Cheng Prusoff; read-out: SSTR2 Ki

First: C[C@@H](O)[C@@H]1NC(=O)[C@H](CCCCN)NC(=O)[C@@H](Cc2c[nH]c3ccccc23)NC(=O)[C@H](Cc2ccc(O)cc2)NC(=O)[C@H](CCSCCC(=O)NCCCCC[C@H](NC(=O)CN2CCN3CCN4CCN(CC2)CC(=O)[O][Lu]([O]C(=O)C3)[O]C(=O)C4)C(=O)O)N(C)C(=O)[C@H](Cc2ccccc2)NC1=O [RB-0003375]
Second: C[C@@H](O)[C@@H]1NC(=O)[C@H](CCCCN)NC(=O)[C@@H](Cc2c[nH]c3ccccc23)NC(=O)[C@H](Cc2ccc(O)cc2)NC(=O)[C@H](CCCSCC(=O)NCCCCCNC(=O)CN2CCN3CCN4CCN(CC2)CC(=O)[O][Lu]([O]C(=O)C3)[O]C(=O)C4)N(C)C(=O)[C@H](Cc2ccccc2)NC1=O [RB-0003482]
The Ki of the first is higher: 1 to 3.33 nM for the first, < 1 nM for the second.

`C[C@@H](O)[C@@H]1NC(=O)[C@H](CCCCN)NC(=O)[C@@H]([C@@H](C)c2c[nH]c3ccccc23)NC(=O)[C@H](Cc2ccncc2)NC(=O)[C@H](CCSCC(=O)NCCCCCCNC(=O)CN2CCN3CCN4CCN(CC2)CC(=O)[O][Lu]([O]C(=O)C3)[O]C(=O)C4)N(C)C(=O)[C@H](Cc2ccccc2)NC1=O` [RB-0003381] (cyclo([4Pal][dTrp(βS-Me)]KTF[NMehCys](DOTA(Lu)NH(CH2)6NHCOCH2))) and `C[C@@H](O)[C@@H]1NC(=O)[C@H](CCCCN)NC(=O)[C@@H]([C@@H](C)c2c[nH]c3ccccc23)NC(=O)[C@H](Cc2cccnc2)NC(=O)[C@H](CCSCC(=O)NCCCCCCNC(=O)CN2CCN3CCN4CCN(CC2)CC(=O)[O][Lu]([O]C(=O)C3)[O]C(=O)C4)N(C)C(=O)[C@H](Cc2ccccc2)NC1=O` [RB-0003382] (cyclo([3Pal][dTrp(βS-Me)]KTF[NMehCys](DOTA(Lu)NH(CH2)6NHCOCH2))) cannot be ordered by Ki: < 1 nM for the first, < 1 nM for the second.

Compared with `C[C@H](c1ccccc1)[C@@H]1NC(=O)[C@H](CCSCC(=O)NCCCCCCNC(=O)CN2CCN3CCN4CCN(CC2)CC(=O)[O][Lu]([O]C(=O)C3)[O]C(=O)C4)N(C)C(=O)[C@H](Cc2ccccc2)NC(=O)[C@H]([C@@H](C)O)NC(=O)[C@H](CCCCN)NC(=O)[C@@H]([C@@H](C)c2c[nH]c3ccccc23)NC1=O` [RB-0003383] (cyclo(F[NMehCys](DOTA(Lu)NH(CH2)6NHCOCH2)[Phe(3R-Me)][dTrp(βS-Me)]KT)), `C[C@@H](O)[C@@H]1NC(=O)[C@H](CCCCN)NC(=O)[C@@H](Cc2c[nH]c3ccccc23)NC(=O)[C@H](Cc2ccncc2)NC(=O)[C@H](CCSCC(=O)NCCCCCCNC(=O)CN2CCN3CCN4CCN(CC2)CC(=O)[O][Lu]([O]C(=O)C3)[O]C(=O)C4)N(C)C(=O)[C@H]([C@@H](C)c2ccccc2)NC1=O` [RB-0003447] (cyclo([4Pal][dW]KT[X4][NMehCys](DOTA(Lu)NH(CH2)6NHCOCH2))) is higher in Ki: < 1 nM for the first, 3.33 to 10 nM for the second. The first binds more tightly here.

Compared with `C[C@@H](O)[C@@H]1NC(=O)[C@H](CCCCN)NC(=O)[C@@H](Cc2c[nH]c3ccccc23)NC(=O)[C@H](Cc2ccncc2)NC(=O)[C@H](CCSCC(=O)NCCCCCCNC(=O)CN2CCN3CCN4CCN(CC2)CC(=O)[O][Lu]([O]C(=O)C3)[O]C(=O)C4)N(C)C(=O)[C@H](Cc2ccncc2)NC1=O` [RB-0003443] (cyclo([4Pal][NMehCys](DOTA(Lu)NH(CH2)6NHCOCH2)[4Pal][dW]KT)), `C[C@@H](O)[C@@H]1NC(=O)[C@H](CCCCN)NC(=O)[C@@H](Cc2c[nH]c3ccccc23)NC(=O)[C@H](Cc2ccncc2)NC(=O)[C@H](CCSCC(=O)NCCCCCCNC(=O)CN2CCN3CCN4CCN(CC2)CC(=O)[O][Lu]([O]C(=O)C3)[O]C(=O)C4)N(C)C(=O)[C@H](Cc2cccnc2)NC1=O` [RB-0003445] (cyclo([3Pal][NMehCys](DOTA(Lu)NH(CH2)6NHCOCH2)[4Pal][dW]KT)) is lower in Ki: 10 to 33.3 nM for the first, 3.33 to 10 nM for the second.

First: C[C@H](c1ccccc1)[C@@H]1NC(=O)[C@H]([C@@H](C)O)NC(=O)[C@H](CCCCN)NC(=O)[C@@H](Cc2c[nH]c3ccccc23)NC(=O)[C@H](Cc2ccncc2)NC(=O)[C@H](CCSCC(=O)NCCCCCCNC(=O)CN2CCN3CCN4CCN(CC2)CC(=O)[O][Lu]([O]C(=O)C3)[O]C(=O)C4)N(C)C1=O [RB-0003449] (cyclo([4Pal][dW]KT[Phe(3R-Me)][NMehCys](DOTA(Lu)NH(CH2)6NHCOCH2)))
Second: C[C@@H](O)[C@@H]1NC(=O)[C@H](CCCCN)NC(=O)[C@@H](Cc2c[nH]c3ccccc23)NC(=O)[C@H](Cc2ccncc2)NC(=O)[C@H](CCSCC(=O)NCCCCCCNC(=O)CN2CCN3CCN4CCN(CC2)CC(=O)[O][Lu]([O]C(=O)C3)[O]C(=O)C4)N(C)C(=O)[C@H](Cc2ccc(O)nc2)NC1=O [RB-0003451] (cyclo([4Pal][dW]KT[X22][NMehCys](DOTA(Lu)NH(CH2)6NHCOCH2)))
The Ki of the first is higher: 10 to 33.3 nM for the first, 3.33 to 10 nM for the second. The second binds more tightly here.

First: C[C@@H](O)[C@@H]1NC(=O)[C@H](CCCCN)N(C)C(=O)[C@@H](Cc2c[nH]c3ccccc23)N(C)C(=O)[C@H](Cc2ccc(O)cc2)NC(=O)[C@H](CCSCC(=O)NCCCCCCNC(=O)CN2CCN3CCN4CCN(CC2)CC(=O)[O][Lu]([O]C(=O)C3)[O]C(=O)C4)N(C)C(=O)[C@H](Cc2ccccc2)NC1=O [RB-0003455] (cyclo(F[NMehCys](DOTA(Lu)NH(CH2)6NHCOCH2)Y[dNMeW][NMeK]T))
Second: C[C@@H](O)C1NC(=O)[C@H](CCCCN)N(C)C(=O)[C@@H](Cc2c[nH]c3ccccc23)N(C)C(=O)[C@H](Cc2ccc(O)cc2)NC(=O)[C@H](CCSCC(=O)NCCCCCCNC(=O)CN2CCN3CCN4CCN(CC2)CC(=O)[O][Lu]([O]C(=O)C3)[O]C(=O)C4)N(C)C(=O)[C@H](Cc2ccccc2)N(C)C1=O (stereo partly drawn) [RB-0004538] (cyclo([NMeF][NMehCys](DOTA(Lu)NH(CH2)6NHCOCH2)Y[dNMeW][NMeK][ξThr(3R)]))
The Ki of the first is lower: < 1 nM for the first, 3.33 to 10 nM for the second. The first binds more tightly here.

`C[C@@H](O)[C@@H]1NC(=O)[C@H](CCCCN)NC(=O)[C@@H](Cc2c[nH]c3ccccc23)NC(=O)[C@H](Cc2ccc(O)cc2)NC(=O)[C@H](CCCSCC(=O)NCCCCCCNC(=O)CN2CCN3CCN4CCN(CC2)CC(=O)[O][Lu]([O]C(=O)C3)[O]C(=O)C4)N(C)C(=O)[C@H](Cc2ccccc2)NC1=O` [RB-0003484] and `C[C@@H](O)[C@@H]1NC(=O)[C@H](CCCCN)NC(=O)[C@@H](Cc2c[nH]c3ccccc23)NC(=O)[C@H](Cc2ccc(O)cc2)NC(=O)[C@H](CCCSCC(=O)NCCOCCNC(=O)CN2CCN3CCN4CCN(CC2)CC(=O)[O][Lu]([O]C(=O)C3)[O]C(=O)C4)N(C)C(=O)[C@H](Cc2ccccc2)NC1=O` [RB-0003486] cannot be ordered by Ki: < 1 nM for the first, < 1 nM for the second.

Compared with `C[C@@H](O)[C@@H]1NC(=O)[C@H](CCCCN)NC(=O)[C@@H](Cc2c[nH]c3ccccc23)NC(=O)[C@H](Cc2ccncc2)NC(=O)[C@H](CCSCC(=O)NCCOCCOCCOCCNC(=O)CN2CCN3CCN4CCN(CC2)CC(=O)[O][Lu]([O]C(=O)C3)[O]C(=O)C4)N(C)C(=O)[C@H](Cc2ccccc2)NC1=O` [RB-0003504] (cyclo([4Pal][dW]KTF[NMehCys](X6))), `C[C@@H](O)[C@@H]1NC(=O)[C@H](CCCCN)NC(=O)[C@@H](Cc2c[nH]c3ccccc23)NC(=O)[C@H](Cc2ccc(O)cc2)NC(=O)[C@H](CCCCCNC(=O)CN2CCN3CCN4CCN(CC2)CC(=O)[O][Lu]([O]C(=O)C3)[O]C(=O)C4)N(C)C(=O)[C@H](Cc2ccccc2)NC1=O` [RB-0004536] is lower in Ki: 1 to 3.33 nM for the first, < 1 nM for the second.

`CN1C(=O)[C@H](Cc2ccccc2)NC(=O)[C@H](C2CCC2)NC(=O)[C@H](CCCCN)NC(=O)[C@@H](Cc2c[nH]c3ccccc23)NC(=O)[C@H](Cc2ccc(O)cc2)NC(=O)[C@@H]1CCSCC(=O)NCCCCCCNC(=O)CN1CCN2CCN3CCN(CC1)CC(=O)[O][Lu]([O]C(=O)C2)[O]C(=O)C3` [RB-0004540] (cyclo(F[NMehCys](DOTA(Lu)NH(CH2)6NHCOCH2)Y[dW]K[Gly(cBu)])) was tested, and the Ki was < 1 nM.

same assay, conditions: read-out: SSTR2 Ki

`C[C@@H](O)[C@@H]1NC(=O)[C@H](CCCCN)NC(=O)[C@@H]([C@@H](C)c2c[nH]c3ccccc23)NC(=O)[C@H](Cc2ccncc2)NC(=O)[C@H](CCSCC(=O)NCCCCCCNC(=O)CN2CCN(CC(=O)O)CCN(CC(=O)O)CCN(CC(=O)O)CC2)N(C)C(=O)[C@H](Cc2cccnc2)NC1=O` [RB-0003407] (cyclo([3Pal][NMehCys](X3)[4Pal][dTrp(βS-Me)]KT)) and `C[C@H](c1ccccc1)[C@@H]1NC(=O)[C@H]([C@@H](C)O)NC(=O)[C@H](CCCCN)NC(=O)[C@@H]([C@@H](C)c2c[nH]c3ccccc23)NC(=O)[C@H](Cc2ccncc2)NC(=O)[C@H](CCSCC(=O)NCCCCCCNC(=O)CN2CCN(CC(=O)O)CCN(CC(=O)O)CCN(CC(=O)O)CC2)N(C)C1=O` [RB-0003408] fall in the same range of Ki: 1 to 3.33 nM for the first, 1 to 3.33 nM for the second.

For `C[C@@H](O)[C@@H]1NC(=O)[C@H](CCCCN)NC(=O)[C@@H]([C@@H](C)c2c[nH]c3ccccc23)NC(=O)[C@H](Cc2ccncc2)NC(=O)[C@H](CCSCC(=O)NCCCCCCNC(=O)CN2CCN(CC(=O)O)CCN(CC(=O)O)CCN(CC(=O)O)CC2)N(C)C(=O)[C@H]([C@@H](C)c2ccccc2)NC1=O` [RB-0003409], the Ki was < 1 nM.
